Where “and” joins values, the source holds several entries; their conditions need not be identical. Equal entries are not always repeated. Where two headings read alike, the source gives them in different places.
Tests used:
[1] = design: species or system mice; conditions: mouse, in vivo, po, 50 mg/kg
Method: Animals were treated either with 4 daily doses of Wy-14,643/corn oil (50 mg/kg, orally) or with corn oil alone, as shown in Table 2. Approximately 24 hr after the last dose, all mice were sacrificed using an increasing concentration of CO2. Liver and plasma were collected for analysis. Following treatment with Wy-14,643 or the vehicle (corn oil), the mice were sacrificed and their livers removed and weighed. […] The concentration of inducing agent was of supplied chemical, without any correction for purity. The volume administered was 10 ml/kg bodyweight. […] On the day of termination the mice were weighed, the body weights recorded, and then transferred to a suitable room for post mortem. Approximately 24 hrs after treatment, the mice will be killed by exposure to a rising concentration of CO2.

[2] = type: in vivo, mice; conditions: for Diluted Chol / Diluted HDL / Diluted LDL / Diluted Trig: dilution factor 2; for Diluted Chol / Diluted HDL / Diluted LDL / Diluted Trig / Normalised Chol / Normalised HDL / Normalised LDL / Normalised Trig: individual mice
Method: The plasma was processed by taking blood from the terminated mice by cardiac puncture into lithium/heparin-coated tubes. Following removal into suitable tubes for plasma preparation, terminal blood samples taken by cardiac puncture were mixed on a roller for 10 min then cooled on ice. Red blood cells were removed by centrifugation (2,000-3,000 rpm for 10 min at 8-10° C.). Immediately after centrifugation, the supernatant (plasma) was collected in eppendorfs and kept on wet ice. Plasma was transferred into cryovials for clinical chemistry and immediately flash frozen in liquid nitrogen, then stored at approximately −70° C. […] In order to investigate potential hepatotoxicity caused by Wy-14,643 treatment, markers of liver damage, alanine aminotransferase (ALT), aspartate aminotransferase (AST) and alkaline phosphatase (ALP) were measured in WT and hPPARα mice (Tables 6-8). Liver related plasma biomarkers, albumin (ALB), conjugated and total bilirubin (BIL-D and BIL-T respectively), cholesterol, high density lipoprotein (HDL-C), low density lipoprotein (LDL-C) and triglycerides were also investigated in all available plasma samples in order to characterise basal hepatic function in hPPARα mice relative to WT mice (Tables 9-15).

Cyp4a protein = conditions: WT mice; liver microsomes; 50 mg/kg orally x4 daily
Method: Henderson, University of Dundee, UK). The standard used was APFO-induced WT rat liver microsomes (1 μg protein loaded).
To investigate the downstream effects of PPARα activation, the expression of Cyp4a proteins was evaluated by immunoblot analysis in liver microsomes from WT and hPPARα mice.
Individual liver microsomal samples were analysed by immunoblotting for Cyp4a. Protein concentration was measured using the CXR microlowry method. Quantification of Cyp4a protein in mouse liver microsomes was carried out. A murine his-tagged Cyp4a recombinant standard was loaded onto the NU-PAGE gel.

[3] = test system: cyanide-insensitive palmitoyl-CoA oxidation; experiment: Cyanide-insensitive palmitoyl CoA oxidation in mouse liver (crude mitochondria); type: in vivo; conditions: for PCO oxidation, NAD + red.: crude mitochondrial fraction of liver, 50 mg/kg orally x4 daily, individual mice, 50 mg/kg
Method: Measurements of cyanide-insensitive pCoA oxidation in crude mitochondrial fractions were performed as described.

Cyp4a activity = conditions: mouse, in vivo
Method: Lauric acid hydroxylation activity measurements in liver microsomes were performed.
Liver microsomes from each available animal were evaluated for Cyp4a activity by measuring lauric acid hydroxylation (FIG. 19, Tables 17-18).

[4] = WT mice, plasma, 50 mg/kg orally x4 daily, 50 mg/kg
[5] = WT mice, plasma, 50 mg/kg orally x4 daily, n = 3
[6] = WT mice, plasma, % mean own control
[7] = hPPARα mice, plasma, 50 mg/kg orally x4 daily, 50 mg/kg

## Cc1cccc(Nc2cc(Cl)nc(SCC(=O)O)n2)c1C [Wy-14,643]
[1]
  Body weights, % Mean: 98%
  Body weights, Mean: 26 g
  Liver body weight ratios, % Mean: 139%
  Liver body weight ratios, Mean: 6.46%
  Liver weights, % Mean: 135%
  Liver weights, Mean: 1.69 g
[2]; WT mice, p<0.05
  triglyceride concentrations, decrease compared to corresponding control mice: ~50%
[2]; [4]
  Diluted Chol: 1.25 mmol/L and 1.02 mmol/L and 1.40 mmol/L
  Diluted HDL: 1.28 mmol/L and 1.02 mmol/L and 1.36 mmol/L
  Diluted LDL: 0.12 mmol/L and 0.08 mmol/L and 0.14 mmol/L
  Diluted Trig: 0.27 mmol/L and 0.21 mmol/L and 0.31 mmol/L
  Normalised Chol: 2.50 mmol/L and 2.04 mmol/L and 2.80 mmol/L
  Normalised HDL: 2.56 mmol/L and 2.04 mmol/L and 2.72 mmol/L
  Normalised LDL: 0.24 mmol/L and 0.16 mmol/L and 0.28 mmol/L
  Normalised Trig: 0.54 mmol/L and 0.42 mmol/L and 0.62 mmol/L
[2]; [5]
  Cholesterol, Mean: 2.45 mmol/L
  HDL, Mean: 2.44 mmol/L
  LDL, Mean: 0.23 mmol/L
  Triglycerides, Mean: 0.53 mmol/L
[2]; [6]
  Cholesterol, % Mean: 97%
  HDL, % Mean: 103%
  LDL, % Mean: 89%
  Triglycerides, % Mean: 56%
[2]; [7]
  Diluted Chol: 1.18 mmol/L and 1.47 mmol/L
  Diluted HDL: 1.14 mmol/L and 1.46 mmol/L
  Diluted LDL: 0.07 mmol/L and 0.11 mmol/L
  Diluted Trig: 0.64 mmol/L and 0.60 mmol/L
  Normalised Chol: 2.36 mmol/L and 2.94 mmol/L
  Normalised HDL: 2.28 mmol/L and 2.92 mmol/L
  Normalised LDL: 0.14 mmol/L and 0.22 mmol/L
  Normalised Trig: 1.28 mmol/L and 1.20 mmol/L
[2]; mouse, in vivo
  ALP, % Mean: 129%
  ALT, % Mean: 117%
  AST, % Mean: 121%
  Albumin, % Mean: 101%
  BIL-D, % Mean: 22%
  BIL-T, % Mean: 69%
[2]; mouse, in vivo, po, 50 mg/kg
  ALP, Mean: 129 U/L
  ALT, AST and ALP concentration (plasma markers of hepatotoxicity): unaltered
  ALT, Mean: 34 U/L
  AST, Mean: 119 U/L
  Albumin, Mean: 38 g/L
  BIL-D, Mean: 0.08 µmol/L
  BIL-T, Mean: 17 µmol/L
  Plasma albumin levels: unaltered
[2]; the two hPPARα mice
  triglyceride concentrations, decrease compared to corresponding control mice: 25% and 29%
Cyp4a protein
  Cyp4a protein expression (immunoblot, 50 kD band): marked induction
[3]; WT mice, % mean own control
  PCO oxidation, % MEAN: 265%
[3]; WT mice
  PCO oxidation, NAD + red.: 79 nmol/min/mg and 73 nmol/min/mg and 82 nmol/min/mg
[3]; WT mice, n = 3
  PCO oxidation, NAD + red., MEAN: 78 nmol/min/mg
[3]; both mouse lines (WT, hPPARα), crude mitochondrial fractions
  cyanide-insensitive pCoA oxidation, induction relative to vehicle controls: approximately 3 fold
[3]; hPPARα mice
  PCO oxidation, NAD + red.: 41 nmol/min/mg and 53 nmol/min/mg
Cyp4a activity
  Formation of 11-OH lauric acid, % MEAN: 308%
  Formation of 11-OH lauric acid, MEAN: 3.0 nmol/min/mg
  Formation of 12-OH lauric acid, % MEAN: 1669%
  Formation of 12-OH lauric acid, MEAN: 9.2 nmol/min/mg

— patent US20110119780A1, “SCREENING FOR NON-GENOTOXIC CARCINOGENS” (priority 2008, published 2011)
